This assay has as its system MX-1 breast xenograft, intrarenal, nude mice, tumor weight. The assay is described as follows: NCI In Vivo Anticancer Drug Screen. Data for tumor model Human Mammary Carcinoma MX-1 Xenograft (intrarenal inoculation) in NU/NU BALB/C (nude) mice. The note with it: endpoint: mean tumor weight change, higher = larger tumour. An outline of the steps: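 Mice w/ transplanted tumors, drug vs vehicle; endpoint survival or tumor size; value = T/C.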

Setting [1] is: dose: 240.0 mg/kg/injection, schedule: Q04DX003 (ip), vehicle: saline with Tween-80.
The mark [2] stands for this setting: dose: 75.0 mg/kg/injection, schedule: Q04DX003 (ip), vehicle: Klucel (hydroxypropylcellulose) (HPC).
Setting [3] is: dose: 150.0 mg/kg/injection, schedule: Q04DX003 (ip), vehicle: Klucel (hydroxypropylcellulose) (HPC).
Setting [4] is: dose: 150.0 mg/kg/injection, schedule: Q04DX003 (ip), vehicle: saline with Tween-80.

“And” between values parts separate entries of the source, which are not always exact repeats. Identical values can stand only once. Inconclusive results are not listed.

As for `NC(=O)SCC(N)C(=O)O` (stereo not given), the T/C runs as follows: (dose: 300.0 mg/kg/injection, schedule: Q04DX003 (ip), vehicle: saline) 88 % of control; (dose: 400.0 mg/kg/injection, schedule: Q04DX003 (sc), vehicle: saline) 49 % of control; (dose: 600.0 mg/kg/injection, schedule: Q04DX003 (ip), vehicle: saline) 80 % of control; (dose: 600.0 mg/kg/injection, schedule: Q04DX003 (sc), vehicle: saline) 37 % of control and 52 % of control; (dose: 750.0 mg/kg/injection, schedule: Q04DX003 (sc), vehicle: saline) 53 % of control; (dose: 900.0 mg/kg/injection, schedule: Q04DX003 (sc), vehicle: saline) 16 % of control and 38 % of control.

For the molecule `COC1=C(OC)C(=O)C(SC/C=C(\C)CCCC(C)CCCC(C)CCCC(C)C)=CC1=O` (stereo not given), the T/C reads like this: (dose: 300.0 mg/kg/injection, schedule: Q04DX003 (ip), vehicle: saline with Tween-80) 220 % of control; (dose: 600.0 mg/kg/injection, schedule: Q04DX003 (ip), vehicle: saline with Tween-80) 61 % of control; (dose: 1200.0 mg/kg/injection, schedule: Q04DX003 (ip), vehicle: saline with Tween-80) 75 % of control.

As to `CN1C2C=CC(=O)C1C1C(=O)N(c3ccccc3)C(=O)C12` (stereo not given), the T/C reads like this: (dose: 100.0 mg/kg/injection, schedule: Q04DX003 (ip), vehicle: Klucel (hydroxypropylcellulose) (HPC)) 105 % of control; (dose: 200.0 mg/kg/injection, schedule: Q04DX003 (ip), vehicle: Klucel (hydroxypropylcellulose) (HPC)) 77 % of control.

As for `O=C1CN(c2ccccc2)C(=O)C1C(=O)Nc1ccc(Cl)c(Cl)c1` (stereo not given), the T/C reads like this: (dose: 120.0 mg/kg/injection, schedule: Q04DX003 (ip), vehicle: saline with Tween-80) 70 % of control; under setting [1], 32 % of control.

On to `COC1C(CO)OC(n2cnc3c(=S)nc(N)[nH]c32)C1O` (stereo not given), for which the T/C reads like this: (dose: 150.0 mg/kg/injection, schedule: Q04DX003 (sc), vehicle: Klucel (hydroxypropylcellulose) (HPC)) 105 % of control; (dose: 300.0 mg/kg/injection, schedule: Q04DX003 (sc), vehicle: Klucel (hydroxypropylcellulose) (HPC)) 48 % of control.

For the molecule `O=CNCO`, the T/C runs as follows: (dose: 300.0 mg/kg/injection, schedule: Q01DX010 (sc), vehicle: water) 68 % of control; (dose: 600.0 mg/kg/injection, schedule: Q01DX010 (sc), vehicle: water) 39 % of control; (dose: 1200.0 mg/kg/injection, schedule: Q01DX010 (sc), vehicle: water) 11 % of control; (dose: 2000.0 mg/kg/injection, schedule: Q01DX010 (sc), vehicle: water) 8 % of control.

For the molecule `CN(CCN(C)C(=O)CCOS(C)(=O)=O)C(=O)CCOS(C)(=O)=O`, the T/C was 7 % of control (dose: 37.5 mg/kg/injection, schedule: Q04DX003 (sc), vehicle: saline); -100 % of control (dose: 75.0 mg/kg/injection, schedule: Q04DX003 (sc), vehicle: saline); -100 % of control (dose: 150.0 mg/kg/injection, schedule: Q04DX003 (sc), vehicle: saline); -44 % of control (dose: 300.0 mg/kg/injection, schedule: Q04DX003 (sc), vehicle: saline).

For the molecule `NC1(C(=O)O)CCCC1`, the T/C runs as follows: (dose: 25.0 mg/kg/injection, schedule: Q01DX010 (sc), vehicle: saline) 73 % of control; (dose: 50.0 mg/kg/injection, schedule: Q01DX010 (sc), vehicle: saline) 31 % of control.

Consider `Cc1c(-c2ccc(-c3ccccc3F)cc2)nc2ccc(F)cc2c1C(=O)O`, for which the T/C by setting is: (dose: 6.9 mg/kg/injection, schedule: Q01DX009 (ip), vehicle: water) 15 % of control and 19 % of control; (dose: 11.5 mg/kg/injection, schedule: Q01DX009 (ip), vehicle: water) 8 % of control and 18 % of control; (dose: 19.2 mg/kg/injection, schedule: Q01DX009 (ip), vehicle: water) 2 % of control and 12 % of control; (dose: 32.0 mg/kg/injection, schedule: Q01DX009 (ip), vehicle: water) 6 % of control and 9 % of control.

For `COC(=O)NC1C(C)OC(OC2C/C=C(/C)C3C=CC4C(OC5CC(OC6CC(O)C(OC7CC(O)C(OC)C(C)O7)C(C)O6)C(O)C(C)O5)C(C)CC(C)C4C3(C)/C(O)=C3\C(=O)OC4(CC(C)C(CO)=CC4/C=C\2C)C3=O)CC1(C)[N+](=O)[O-]` (stereo not given), the T/C under setting [2] was 110 % of control and the T/C under setting [3] was 108 % of control.

Consider `C=CC(C)(C)n1cc(C2=C(O)C(=O)C(c3cn(C(C)(C)C=C)c4ccccc34)=C(O)C2=O)c2ccccc21`, for which the T/C by setting is: (dose: 50.0 mg/kg/injection, schedule: Q04DX003 (sc), vehicle: Klucel (hydroxypropylcellulose) (HPC)) 80 % of control; (dose: 100.0 mg/kg/injection, schedule: Q04DX003 (sc), vehicle: Klucel (hydroxypropylcellulose) (HPC)) 96 % of control; (dose: 200.0 mg/kg/injection, schedule: Q04DX003 (sc), vehicle: Klucel (hydroxypropylcellulose) (HPC)) 76 % of control; (dose: 400.0 mg/kg/injection, schedule: Q04DX003 (sc), vehicle: Klucel (hydroxypropylcellulose) (HPC)) 74 % of control.

As for `Nc1ccc(S(=O)(=O)Nc2cnc3c(Cl)cccc3n2)cc1`, the T/C (dose: 150.0 mg/kg/injection, schedule: Q04DX003 (ip), vehicle: DMSO) was 103 % of control; the T/C (dose: 300.0 mg/kg/injection, schedule: Q04DX003 (ip), vehicle: DMSO) was 49 % of control; the T/C (dose: 600.0 mg/kg/injection, schedule: Q04DX003 (ip), vehicle: DMSO) is 75 % of control.

For the molecule `O=S(=O)(O)C1=CC(=N\Cl)/C=CC/1=N/Cl`, under setting [4], the T/C is 89 % of control.

With `CNC(=O)N(C)N=NCCCl`, the T/C by setting is: (dose: 100.0 mg/kg/injection, schedule: Q04DX003 (ip), vehicle: saline with Tween-80) 15 % of control; (dose: 140.0 mg/kg/injection, schedule: Q04DX003 (ip), vehicle: saline with Tween-80) 10 % of control; (dose: 200.0 mg/kg/injection, schedule: Q04DX003 (ip), vehicle: saline with Tween-80) 1 % of control; under setting [1], 8 % of control; (dose: 400.0 mg/kg/injection, schedule: Q04DX003 (ip), vehicle: saline with Tween-80) -76 % of control.

`NC(Cc1ccccc1)C(=O)OCN1C(=O)C2C3C=CC(C2C1=O)C1C2C(=O)N(COC(=O)C(N)Cc4ccccc4)C(=O)C2C31` (stereo not given): the T/C (dose: 21.6 mg/kg/injection, schedule: Q01DX009 (ip), vehicle: water) was 76 % of control; the T/C (dose: 25.0 mg/kg/injection, schedule: Q04DX003 (ip), vehicle: other) is 94 % of control; the T/C (dose: 30.9 mg/kg/injection, schedule: Q01DX009 (ip), vehicle: water) is 57 % of control; the T/C (dose: 44.1 mg/kg/injection, schedule: Q01DX009 (ip), vehicle: water) is 111 % of control; the T/C (dose: 50.0 mg/kg/injection, schedule: Q04DX003 (ip), vehicle: other) is 86 % of control; the T/C (dose: 63.0 mg/kg/injection, schedule: Q01DX009 (ip), vehicle: water) was 52 % of control. For the same molecule, the T/C reads like this: (dose: 90.0 mg/kg/injection, schedule: Q01DX009 (ip), vehicle: water) 24 % of control; (dose: 100.0 mg/kg/injection, schedule: Q04DX003 (ip), vehicle: other) 65 % of control; (dose: 200.0 mg/kg/injection, schedule: Q04DX003 (ip), vehicle: other) 39 % of control.

As for `O=C1C2CC(Cl)C(SSC3CC4C(=O)N(SC(Cl)(Cl)C(Cl)Cl)C(=O)C4CC3Cl)CC2C(=O)N1SC(Cl)(Cl)C(Cl)Cl` (stereo not given), the T/C by setting is: (dose: 75.0 mg/kg/injection, schedule: Q04DX003 (ip), vehicle: saline with Tween-80) 88 % of control; under setting [4], 45 % of control.

As to `C=CCOc1cc2c(cc1C(C)c1ccc(OC)cc1)OCO2` (stereo not given), the T/C under setting [2] is 73 % of control; the T/C under setting [3] was 91 % of control; the T/C (dose: 300.0 mg/kg/injection, schedule: Q04DX003 (ip), vehicle: Klucel (hydroxypropylcellulose) (HPC)) was 94 % of control.

Consider `CNc1nc(N(C)C)nc(N(C)C)n1`, for which the T/C is, setting by setting: (dose: 30.0 mg/kg/injection, schedule: Q01DX010 (sc), vehicle: water) 1 % of control; (dose: 60.0 mg/kg/injection, schedule: Q01DX010 (sc), vehicle: water) -31 % of control; (dose: 120.0 mg/kg/injection, schedule: Q01DX010 (sc), vehicle: water) -94 % of control.

`NC(=O)c1c[se]c(C2OC(CO)C(O)C2O)n1` (stereo not given): the T/C runs as follows: (dose: 75.0 mg/kg/injection, schedule: Q04DX003 (ip), vehicle: water) 88 % of control; (dose: 150.0 mg/kg/injection, schedule: Q04DX003 (ip), vehicle: water) 61 % of control; (dose: 300.0 mg/kg/injection, schedule: Q04DX003 (ip), vehicle: water) 50 % of control; (dose: 600.0 mg/kg/injection, schedule: Q04DX003 (ip), vehicle: water) 43 % of control.

These data come from PubChem BioAssay AID298 (DTP/NCI, 2004).
